Measurements: US8426175B2, “Method for the production of a fermentation product from a pretreated lignocellulosic feedstock” (Iogen Energy Corporation, priority 2007, dated 2013)
Read-outs that look alike come from different tables or passages of the source.

Tests used:
Saccharomyces yeast = settings: for impact on the viability of the yeast: 500 ppm or higher
Procedure: (§2) The yeast was concentrated by centrifugation (4 min, 4000 rpm) and resuspended in the original, contaminated supernatant to 20 g/L, 200 g/L or 300 g/L. Contamination was verified microscopically. The three slurries produced were cooled in an ice-water bath treated with either ClO2 at 0, 10, 50, 250, 500, 750 and 1000 ppm, serially diluted and plated on YM agar (3.0 g/L yeast extract, 3.0 g/L malt extract, 5 g/L peptone, 10 g/L glucose, 20 g/L agar)+chloramphenicol (34 μg/mL) plates for yeast and TSA (15 g/L pancreatic casein digest, 5 g/L enzymatic soy meal digest, 5 g/L NaCl, 15 g/L agar)+cycloheximide (0.05 μg/mL) plates for bacterial enumeration. Plates were incubated overnight at 30° C. and 37° C. for yeast and bacteria, respectively. Plates were counted the next day and bacterial colonies were verified microscopically.

[1] = tested on: bacteria in contaminated yeast slurry; assay: Bacterial enumeration on TSA + cycloheximide plates after ClO2 treatment of contaminated yeast slurry; type: cell-based
Procedure: as §2

[2] = tested on: contaminated recombinant Saccharomyces cultures; assay: Batch fermentation of xylose to ethanol inoculated with chlorine dioxide-treated, recycled yeast slurry; type: cell-based
Procedure: Saccharomyces cells from a frozen glycerol stock were used to inoculate 4 L of Sc Inoculation Medium (pH 6). The inoculum was grown with shaking at 160 rpm for 24 h at 30° C. The cells were harvested by centrifugation (4000 rpm for 5 min) and the entire cell pellet was resuspended in about 50 mL of the supernatant and this was used to inoculate 20 L of Sc Propagation Medium (pH 5.0). A fed-batch fermentation was run for 4 days with mild aeration of 56 slpm and 500 rpm agitation by mechanical stirring. The pH was maintained at 5.0 and the temperature was maintained at 30° C. for the first two days followed by 28° C. for the last two days. A 60 g/L glucose solution was fed to the vessel at a rate of 83.3 mL/h. The culture was sampled three times daily and the samples analyzed for cell growth, xylose and glucose. At the end of the fermentation, the entire broth was harvested and the cells concentrated by centrifugation (4000 rpm for 5 min in multiple 4 L Nalgene bottles). The cell pellets were resuspended to a concentration of 22.5 g cell mass/L. This was used to inoculate 10 L of Sc Fermentation Medium. Batch fermentation was run for 2-3 days with 1 slpm aeration, 250 rpm mechanical agitation. The pH was maintained at 6.0 and the temperature maintained at 28-30° C. The culture was sampled three times daily and the samples analyzed for cell growth, xylose glucose and ethanol.
(§1) Xylose and glucose concentrations of each sample were measured as follows: 2 mL of the broth were centrifuged at 14,000 rpm for 3 min to remove cells and the supernatant filtered through a 0.2 μm syringe filter. 10× dilutions of the supernatant were prepared in 5 mM sulfuric acid solution. Dilutions were analyzed via HPLC using an Agilent 1100 Series HPLC stem equipped with an 1100 Series Autosampler and Pumping System and Chemstation control software. A Varian MetaCarb 87H column maintained at 50° C. was used for separation. The eluant was a 5 mM aqueous sulfuric acid solution with a flow rate of 0.600 mL/min. Glucose, ethanol, xylose and xylitol were quantified using an Agilent 1100 Series Refractive Index Detector. Acetic acid and lactic acid were measured using an Agilent 1200 Series Variable Wavelength Detector.
[…] The yeast slurry was treated with chlorine dioxide at 50 ppm, 300 ppm and 500 ppm. The yeast slurry was used to re-inoculate fermentors containing 10 L of Sc Fermentation Medium run in batch mode at a starting yeast concentration targeted at 22.5 g/L yeast, as described in Example 2a. The culture was sampled three times daily and the samples analyzed for xylose, lactic acid and ethanol as described in Example 2a.

[3] = tested on: bacterially contaminated Candida tropicalis culture; assay: Batch fermentation of xylose to xylitol inoculated with chlorine dioxide-treated, recycled yeast slurry; type: cell-based; settings: yeast slurry treated with 100 ppm at room temperature (FIG. 5)
Procedure: as §1
C. tropicalis cells from a frozen glycerol stock used to inoculate 2 L of Ct Inoculation Medium. The inoculum was grown with shaking at 160 rpm for 24 h at 30° C. The cells were harvested by centrifugation and the entire cell pellet was used to inoculate 2 L of Ct Xylose Medium. This culture was grown with shaking at 160 rpm for 24 h at 30° C. and the broth was used to inoculate 10 L of Ct Fermentation Medium. […] The culture was sampled three times daily and the samples analyzed for cell growth, xylose and xylitol as described in Example 2a. […]

Lactobacillus strains = settings: cited from earlier work
[4] = 200 g/L yeast slurry treated at 300 ppm (FIG. 3B)
[5] = 300 g/L yeast slurry treated at 500 ppm (FIG. 3C)

Compound: [O][Cl+][O-] [chlorine dioxide]
- impact on yeast viability (Saccharomyces yeast; 20 g/L yeast cell suspension, 250 ppm or higher): little to no impact
- impact on the viability of the yeast (Saccharomyces yeast; 200 g/L yeast suspension): little or no impact
- impact on the viability of the yeast (Saccharomyces yeast; 300 g/L yeast suspension): little or no impact
- chlorine dioxide dosage that effectively suppresses bacterial growth ([1]; 20 g/L yeast cell suspension): ≥ 250 ppm
- chlorine dioxide dosage required for effective bacterial decontamination ([1]; 200 g/L yeast suspension): ≥ 500 ppm
- chlorine dioxide dosage required for effective bacterial decontamination ([1]; 300 g/L yeast suspension): ≥ 500 ppm
- ethanol product produced versus culture from slurry treated with 50 ppm [2, 4]: significantly more
- unwanted lactic acid byproduct produced versus culture from slurry treated with 50 ppm [2, 4]: less
- ethanol product produced versus culture from slurry treated with 50 ppm [2, 5]: significantly more
- unwanted lactic acid byproduct produced versus culture from slurry treated with 50 ppm [2, 5]: less
- rate of xylose consumption ([2]; cells treated with the higher chlorine dioxide dosages (300, 500 ppm) vs 50 ppm): significantly faster
- xylitol fermentation product produced versus culture inoculated with the untreated slurry [3]: produced more

Compound: OO [hydrogen peroxide]
- reducing the viability of Lactobacillus (Lactobacillus strains; one of the Lactobacillus species tested): effective

Compound: O=S(O)O [sulfite]
- susceptibility of bacterial contaminants (two Lactobacillus strains) (Lactobacillus strains; treatment of yeast cells concentrated by filtration): susceptible to sulfite only in the presence of oxygen
